Data as given in patent publication US20250085273A1, “NOVEL RAPID DRUG DISCOVERY FOR SEPSIS AND AGENTS FOR USE AS SEPSIS THERAPY” (priority 2023, published 2025).
Like-named read-outs stand apart in the source and are kept apart here.

Key:
[1] = test system: 3-dpf Zebrafish Embryos Challenged with LPS (P. aeruginosa 60 μg/mL); format: in vivo, Danio rerio; conditions: P. aeruginosa LPS 60 μg/mL, compound 10 μM
Summary of the method: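 3-dpf PTU-treated AB zebrafish embryos exposed to 60 μg/mL P. aeruginosa LPS plus 10 μM compound (final) at 28.5 °C, n=16 per compound. Tail edema and mortality scored at 6 and 24 h post exposure; rescue judged against LPS-only controls at 24 h.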

[2] = test system: 5-dpf zebrafish larvae challenged with P. aeruginosa LPS 60 μg/mL; format: in vivo, Danio rerio; conditions: compound 10 μM
[3] = test system: 5-dpf zebrafish challenged with K. Pneumoniae LPS (45 μg/mL); assay: Challenge with K. Pneumoniae LPS (45 μg/mL), 5-dpf zebrafish; format: in vivo, Danio rerio
Protocol: These tests followed the same methods described in the 5-dpf zebrafish confirmatory testing, but K. Pneumoniae LPS (45 μg/mL final in well concentration) was used instead of P. aeruginosa LPS.

[4] = target: D3 (Homo sapiens, UniProt P35462); conditions: read-out: affinity (Ki) D3; cited from earlier work
D3, sequence (P35462 whole entry): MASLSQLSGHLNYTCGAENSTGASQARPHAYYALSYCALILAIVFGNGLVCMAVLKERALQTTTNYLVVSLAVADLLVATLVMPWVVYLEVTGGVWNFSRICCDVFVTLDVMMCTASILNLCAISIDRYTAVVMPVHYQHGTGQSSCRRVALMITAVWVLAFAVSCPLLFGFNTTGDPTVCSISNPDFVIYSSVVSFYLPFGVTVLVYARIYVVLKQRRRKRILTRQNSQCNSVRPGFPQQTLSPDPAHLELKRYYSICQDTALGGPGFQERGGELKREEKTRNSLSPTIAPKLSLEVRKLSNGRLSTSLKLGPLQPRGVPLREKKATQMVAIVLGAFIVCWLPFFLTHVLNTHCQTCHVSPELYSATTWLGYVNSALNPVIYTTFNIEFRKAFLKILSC

[5] = target: T1, α1B (Homo sapiens, UniProt P35368); conditions: read-out: affinity (Ki) α1B; cited from earlier work
T1 sequence (P35368 1-520): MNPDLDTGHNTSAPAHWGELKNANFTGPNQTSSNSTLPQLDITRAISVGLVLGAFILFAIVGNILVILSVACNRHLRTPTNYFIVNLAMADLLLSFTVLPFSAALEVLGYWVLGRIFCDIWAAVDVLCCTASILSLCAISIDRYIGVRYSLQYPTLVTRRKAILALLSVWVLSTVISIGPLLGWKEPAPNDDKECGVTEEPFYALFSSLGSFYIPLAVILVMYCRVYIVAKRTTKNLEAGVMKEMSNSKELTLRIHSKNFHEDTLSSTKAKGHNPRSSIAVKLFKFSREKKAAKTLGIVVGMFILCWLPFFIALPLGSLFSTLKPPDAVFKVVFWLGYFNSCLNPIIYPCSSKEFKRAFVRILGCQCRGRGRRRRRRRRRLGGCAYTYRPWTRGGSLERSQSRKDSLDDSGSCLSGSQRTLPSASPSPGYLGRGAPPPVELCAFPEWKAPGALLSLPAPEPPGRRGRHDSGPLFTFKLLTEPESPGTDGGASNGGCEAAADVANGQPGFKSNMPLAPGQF

[6] = target: T2, α1D (Homo sapiens, UniProt P25100); conditions: read-out: affinity (Ki) α1D; cited from earlier work
T2 sequence (P25100 1-572): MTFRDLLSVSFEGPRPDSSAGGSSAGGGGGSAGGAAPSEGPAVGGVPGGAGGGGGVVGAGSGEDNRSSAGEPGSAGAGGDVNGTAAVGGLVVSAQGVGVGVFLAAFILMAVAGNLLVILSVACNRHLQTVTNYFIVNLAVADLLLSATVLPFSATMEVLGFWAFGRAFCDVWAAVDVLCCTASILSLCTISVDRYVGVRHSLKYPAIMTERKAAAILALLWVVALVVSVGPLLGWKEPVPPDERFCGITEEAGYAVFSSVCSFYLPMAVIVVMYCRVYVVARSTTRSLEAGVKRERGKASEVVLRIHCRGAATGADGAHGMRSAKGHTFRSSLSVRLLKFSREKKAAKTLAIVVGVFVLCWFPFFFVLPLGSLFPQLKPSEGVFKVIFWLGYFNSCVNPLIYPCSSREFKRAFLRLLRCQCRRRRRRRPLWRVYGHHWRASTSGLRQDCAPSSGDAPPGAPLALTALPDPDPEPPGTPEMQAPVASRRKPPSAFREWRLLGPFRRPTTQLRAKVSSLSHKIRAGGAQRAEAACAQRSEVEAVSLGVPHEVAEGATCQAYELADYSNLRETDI

[7] = target: T3, α2C (Homo sapiens, UniProt P18825); conditions: read-out: affinity (Ki) α2C; cited from earlier work
T3 sequence (P18825 1-462): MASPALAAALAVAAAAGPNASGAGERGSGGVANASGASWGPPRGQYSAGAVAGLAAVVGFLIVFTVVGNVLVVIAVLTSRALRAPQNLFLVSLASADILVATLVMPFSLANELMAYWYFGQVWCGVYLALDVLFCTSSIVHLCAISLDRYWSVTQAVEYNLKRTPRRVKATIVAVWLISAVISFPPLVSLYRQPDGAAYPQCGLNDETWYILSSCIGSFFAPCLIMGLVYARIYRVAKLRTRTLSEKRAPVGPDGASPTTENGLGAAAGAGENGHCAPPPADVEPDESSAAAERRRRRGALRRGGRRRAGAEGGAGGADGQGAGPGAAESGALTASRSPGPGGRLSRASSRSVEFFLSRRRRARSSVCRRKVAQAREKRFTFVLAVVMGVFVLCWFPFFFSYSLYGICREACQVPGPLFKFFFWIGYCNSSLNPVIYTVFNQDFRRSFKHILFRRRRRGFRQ

With `O=c1ccc2ccc(OCCCCN3CCN(c4cccc5sccc45)CC3)cc2[nH]1` [Compound 45, Brexpiprazole] the “Percent Rescue (Mort + Tail Edema)” value ([1]; 3-dpf embryos, 24 hours, n=16) was 100%, the “rescue of tail edema and mortality (sepsis rescue rate) at 3-dpf” value ([1]; 3-dpf, 24 hours) was 100% and the “3 dpf Embryos Percent Rescue (Mort + Tail Edema)” value ([1]; initial 3-dpf screen shown for reference) was 100%. For the same compound, the “5 dpf Embryos Percent Rescue (Mort + Tail Edema)” value ([2]; 5-dpf larvae) was 94%, the “rescue of tail edema and mortality (sepsis rescue rate) at 5-dpf” value [2] was 94% and the “rescue of tail edema and mortality (sepsis rescue rate) at 5-dpf” value ([2]; listed as brexpiprazole) was 100%. The “rescue of tail edema and mortality” value [3] was 100%, the Ki [4] was 1.1 nM and the Ki [5] was 0.17 nM. For the same compound, the Ki [6] was 2.6 nM and the Ki [7] was 0.59 nM.
